Results on 33 compounds are retold here after patent publication US6242494A, “Substituted β-amino acid inhibitors of methionine aminopeptidase-2” (Abbott Laboratories, priority 1999, dated 2001).

Counter-ions that a name gives are not always drawn.

The assay concerns the target T1, methionine aminopeptidase-2 (MetAP2) (Homo sapiens, UniProt P50579).
T1 construct: made in house; host or cells: insect cells, baculovirus system (secreted, purified from culture supernatant)
The assay is described as follows: Inhibition of MetAP2 enzyme activity (96-well, Met-Ala-Ser substrate, L-amino acid oxidase/peroxidase/ortho-dianisidine, 450 nm). The note with it: pH 7.4, Met-Ala-Ser substrate, 20 minutes. Type of assay: biochemical. On the procedure:
The ability of compounds of the present invention to inhibit methionine aminopeptidase 2 was evaluated using the following assay.
Assays for MetAP2 enzyme activity and MetAP2 inhibition were performed in 96-well microtiter plates. Compounds to be tested for MetAP2 inhibition were dissolved in dimethyl-sulfoxide at 10 mM and diluted ten-fold in assay buffer ([…], pH 7.4, 100 mM NaCl). Ten microliters of solution of each compound to be tested for inhibition were introduced into each cell of the plate, with each compound being tested in triplicate.
The absorbence at 450 nanometers was measured every 20 seconds over a period of twenty minutes using an automaic plate reader (Molecular Devices, CA, USA). The Vmax in mOD/min, calculated for each well was used to represent MetAP2 activity. The IC50 for each inhibitor was obtained by plotting the remaining MetAP2 activity versus inhibitor concentration.

[1] abbreviates: IC50, recombinant MetAP2 4 μg/mL.

T1 sequence (P50579 whole entry): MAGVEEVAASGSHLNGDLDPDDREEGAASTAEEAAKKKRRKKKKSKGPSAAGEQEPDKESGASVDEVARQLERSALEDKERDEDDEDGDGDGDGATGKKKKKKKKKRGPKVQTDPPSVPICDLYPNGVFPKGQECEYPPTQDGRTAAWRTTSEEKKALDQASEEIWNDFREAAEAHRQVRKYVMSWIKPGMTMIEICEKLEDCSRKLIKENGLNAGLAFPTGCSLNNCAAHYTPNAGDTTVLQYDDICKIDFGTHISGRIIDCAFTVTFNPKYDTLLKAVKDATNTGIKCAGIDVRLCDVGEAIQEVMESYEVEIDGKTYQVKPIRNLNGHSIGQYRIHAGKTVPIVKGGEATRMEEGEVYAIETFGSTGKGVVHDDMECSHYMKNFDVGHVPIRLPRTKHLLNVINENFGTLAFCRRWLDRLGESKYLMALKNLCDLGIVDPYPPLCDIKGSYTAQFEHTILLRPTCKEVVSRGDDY

The term IC50 denotes the concentration needed to halve the response being measured. On to `CSCC[C@@H](N)C(O)C(=O)NCCCCc1ccccc1` (mixture of isomers) [Example 7, (2RS,3R)-N-(4-phenylbutyl)-3-amino-2-hydroxy-5-(methylthio)pentanamide hydrochloride], for which the 50% inhibitory concentration (IC50) under setting [1] is 2000 nM.
For the compound `COc1ccc(CCNC(=O)C(O)[C@H](N)CCSC)cc1` (mixture of isomers) [Example 8, (2RS,3R) N-(2-(4-methoxyphenyl)ethyl)-3-amino-2-hydroxy-5-(methylthio)pentanamide hydrochloride], the half-inhibitory concentration (IC50) under setting [1] is 2300 nM.
Consider `CSCC[C@@H](N)C(O)C(=O)NCCc1ccc(Oc2ccccc2)cc1` (mixture of isomers) [Example 11, (2RS,3R)-N-(2-(4-phenoxyphenyl)ethyl)-3-amino-2-hydroxy-5-(methylthio)pentanamide hydrochloride], for which the half-inhibitory concentration (IC50) under setting [1] was 2600 nM.
Turning to `CCOC(=O)CCCNC(=O)C(O)[C@H](N)CCSCC` (mixture of isomers) [Example 16, (2RS,3R)-N-(3-(carboethoxy)propyl)-3-amino-2-hydroxy-5-(ethylthio)pentanamide hydrochloride], the IC50 under setting [1] worked out at 780 nM.
For the compound `CSCC[C@@H](N)C(O)C(=O)O` (mixture of isomers) [Example 18, (2RS,3R)-3-amino-2-hydroxy-5-(methylthio)pentanoic acid], the IC50 under setting [1] worked out at 150 nM.
As to `CSCC[C@@H](N)C(O)C(=O)NCCc1ccncc1` (mixture of isomers) [Example 19, (2RS,3R)-N-(2-(4-pyridyl)ethyl)-3-amino-2-hydroxy-5-(methylthio)pentanamide], the half-maximal inhibitory concentration (IC50) under setting [1] is 1600 nM.
Still for that read-out and setting: as for `CCOC(=O)CCNC(=O)C(O)[C@H](N)Cc1ccccc1` (mixture of isomers) [Example 20, (2RS,3R)-N-(2-(carboethoxy)ethyl)-3-amino-2-hydroxy-4-phenyl-butanamide hydrochloride], the figure is 5800 nM; as for `CCOC(=O)CCCNC(=O)C(O)[C@H](N)Cc1ccccc1` (mixture of isomers) [Example 21, (2RS,3R)-N-(3-(carboethoxy)propyl)-3-amino-2-hydroxy-4-phenyl-butanamide hydrochloride], 14000 nM; as for `N[C@H](Cc1ccccc1)C(O)C(=O)NCCCCc1ccccc1` (mixture of isomers) [Example 22, (2RS,3R)-N-(4-phenylbutyl)-3-amino-2-hydroxy-4-phenyl-butanamide hydrochloride], 3400 nM.
Regarding `CCOC(=O)CCCNC(=O)C(O)[C@H](N)CC1CCCCC1` (mixture of isomers) [Example 25, (2RS,3R)-N-(3-(carboethoxy)propyl)-3-amino-2-hydroxy-4-cyclohexyl-butanamide hydrochloride], the half-maximal inhibitory concentration (IC50) (recombinant MetAP2 4 μg/mL) worked out at 1900 nM.
Consider `CSCC[C@@H](N)C(O)C(=O)NCCc1cccnc1` (mixture of isomers) [Example 32, (2RS,3R)-N-(2-(3-pyridyl)ethyl)-3-amino-2-hydroxy-5-(methylthio)pentanamide], for which the half-inhibitory concentration (IC50) under setting [1] is 1400 nM.
On to `N[C@H](CC1CCCCC1)C(O)C(=O)NCCCCNS(=O)(=O)c1cccc(C(F)(F)F)c1` (mixture of isomers) [Example 84, (2RS,3R)-3-amino-4-cyclohexyl-2-hydroxy-N-(4-(((3-(trifluoromethyl)phenyl)sulfonyl)amino)butyl)butanamide hydrochloride], for which the IC50 under setting [1] turned out to be 3300 nM.
On to `COc1ccc(S(=O)(=O)NCCCCNC(=O)C(O)[C@H](N)CC2CCCCC2)cc1OC` (mixture of isomers) [Example 85, (2RS,3R)-3-amino-4-cyclohexyl-N-(4-(((3,4-dimethoxyphenyl)sulfonyl)amino)butyl)-2-hydroxybutanamide hydrochloride], for which, under setting [1], the 50% inhibitory concentration (IC50) was 3200 nM.
As for `N[C@H](CC1CCCCC1)C(O)C(=O)NCCCCNS(=O)(=O)c1ccc2ccccc2c1` (mixture of isomers) [Example 87, (2RS,3R)-3-amino-4-cyclohexyl-2-hydroxy-N-(4-((2-naphthylsulfonyl)amino)butyl)butanamide hydrochloride], under setting [1], the IC50 turned out to be 2700 nM.
Turning to `N[C@H](CC1CCCCC1)C(O)C(=O)NCc1ccco1` (mixture of isomers) [Example 100, (2RS,3R)-3-Amino-4-cyclohexyl-N-(2-furylmethyl)-2-hydroxybutanamide Hydrochloride], the IC50 under setting [1] was determined as 5900 nM.
On to `N[C@H](CC1CCCCC1)C(O)C(=O)NCCCN1CCCC1=O` (mixture of isomers) [Example 102, (2RS,3R)-3-Amino-4-cyclohexyl-2-hydroxy-N-(3-(2-oxo-1-pyrrolidinyl)propyl)butanamide Hydrochloride], for which the IC50 under setting [1] worked out at 13000 nM.
Turning to `N[C@H](CC1CCCCC1)C(O)C(=O)Nc1ccccc1` (mixture of isomers) [Example 107, (2RS,3R)-3-Amino-4-cyclohexyl-2-hydroxy-N-phenylbutanamide Hydrochloride], under setting [1], the IC50 came out at 1200 nM.
`N[C@H](CC1CCCCC1)C(O)C(=O)NCCc1ccccc1Cl` (mixture of isomers) [Example 108, (2RS,3R)-3-Amino-N-(2-chlorophenethyl)-4-cyclohexyl-2-hydroxybutanamide Hydrochloride]: under setting [1], the half-maximal inhibitory concentration (IC50) was found to be 630 nM.
As for `N[C@H](CC1CCCCC1)C(O)C(=O)NCCCc1ccccc1` (mixture of isomers) [Example 109, (2RS,3R)-3-Amino-4-cyclohexyl-2-hydroxy-N-(3-phenylpropyl)butanamide Hydrochloride], under setting [1], the IC50 is 1700 nM.
With `N[C@H](CC1CCCCC1)C(O)C(=O)NC1CCCc2ccccc21` (mixture of isomers) [Example 110, (2RS,3R)-3-Amino-4-cyclohexyl-2-hydroxy-N-(1,2,3,4-tetrahydro-1-naphthalenyl)butanamide Hydrochloride], the half-inhibitory concentration (IC50) (recombinant MetAP2 4 μg/mL) was 1000 nM.
On to `CC(C)(C)C1CCC(NC(=O)C(O)[C@H](N)CC2CCCCC2)CC1` (mixture of isomers) [Example 111, (2RS,3R)-3-Amino-N-(4-(tert-butyl)cyclohexyl)-4-cyclohexyl-2-hydroxybutanamide Hydrochloride], for which, under setting [1], the IC50 is 8200 nM.
Same read-out and setting: as for `N[C@H](CC1CCCCC1)C(O)C(=O)Nc1cc(Cl)cc(Cl)c1` (mixture of isomers) [Example 112, (2RS,3R)-3-Amino-4-cyclohexyl-N-(3,5-dichlorophenyl)-2-hydroxybutanamide Hydrochloride], the figure is 1500 nM; as for `CC(C)(C)OC(=O)CNC(=O)C(O)[C@H](N)CC1CCCCC1` (mixture of isomers) [Example 126, tert-butyl (2RS,3R)-2-((3-amino-4-cyclohexyl-2-hydroxybutanoyl)amino)acetate hydrochloride], 13000 nM.
Turning to `COC(=O)C(Cc1ccccc1)NC(=O)C(O)[C@H](N)CC1CCCCC1` (mixture of isomers) [Example 127, methyl (2RS,3R)-2-((3-amino-4-cyclohexyl-2-hydroxybutanoyl)amino)-3-phenylpropanoate hydrochloride], the 50% inhibitory concentration (IC50) under setting [1] is 28000 nM.
Regarding `C[C@H](NC(=O)C(O)[C@H](N)CC1CCCCC1)c1cccc2ccccc12` (mixture of isomers) [Example 133, (2RS,3R)-3-amino-4-cyclohexyl-2-hydroxy-N-((1S)-1-(1-naphthyl)ethyl)butanamide hydrochloride], the IC50 under setting [1] was 270 nM.
With `C[C@@H](NC(=O)C(O)[C@H](N)CC1CCCCC1)c1cccc2ccccc12` (mixture of isomers) [Example 134, (2RS,3R)-3-amino-4-cyclohexyl-2-hydroxy-N-((1R)-1-(1-naphthyl)ethyl)butanamide hydrochloride], the half-inhibitory concentration (IC50) under setting [1] came out at 3100 nM.
On to `N[C@H](CC1CCCCC1)C(O)C(=O)NC(CO)CO` (mixture of isomers) [Example 136, (2RS,3R)-3-amino-4-cyclohexyl-2-hydroxy-N-(2-hydroxy-1-(hydroxymethyl)ethyl)butanamide trifluoroacetate], for which the IC50 under setting [1] worked out at 1800 nM.
With `N[C@H](CC1CCCCC1)C(O)C(=O)NCCc1ccc(F)cc1` (mixture of isomers) [Example 142, (2RS,3R)-3-amino-4-cyclohexyl-N-(4-fluorophenethyl)-2-hydroxybutanamide hydrochloride], the concentration for half-maximal inhibition (IC50) under setting [1] was 400 nM.
The same measure, in the same setting: the value for `Cc1ccc(NC(=O)C(O)[C@H](N)CC2CCCCC2)cc1` (mixture of isomers) [Example 143, (2RS,3R)-3-amino-4-cyclohexyl-2-hydroxy-N-(4-methylphenyl)butanamide] was 870 nM.
With `N[C@H](CC1CCCCC1)C(O)C(=O)Nc1ccc(F)cc1` (mixture of isomers) [Example 144, (2RS,3R)-3-amino-4-cyclohexyl-N-(4-fluorophenyl)-2-hydroxybutanamide], the concentration for half-maximal inhibition (IC50) under setting [1] is 2100 nM.
`COc1ccc(NC(=O)C(O)[C@H](N)CC2CCCCC2)cc1` (mixture of isomers) [Example 145, (2RS,3R)-3-amino-4-cyclohexyl-2-hydroxy-N-(4-methoxyphenyl)butanamide]: the 50% inhibitory concentration (IC50) under setting [1] stood at 1200 nM.
Regarding `COc1ccccc1NC(=O)C(O)[C@H](N)CC1CCCCC1` (mixture of isomers) [Example 146, (2RS,3R)-3-amino-4-cyclohexyl-2-hydroxy-N-(2-methoxyphenyl)butanamide], under setting [1], the 50% inhibitory concentration (IC50) amounted to 1500 nM.
Consider `N[C@H](CC1CCCCC1)C(O)C(=O)Nc1ccc(Cl)cc1` (mixture of isomers) [Example 147, (2RS,3R)-3-amino-N-(4-chlorophenyl)-4-cyclohexyl-2-hydroxybutanamide], for which, under setting [1], the IC50 was 1000 nM.
